Laboratory results: patent publication US20010051631A1, “Tricyclic compounds, their production and use” (priority 1994, published 2001)

Experiments:
[1] = tested on: spontaneously hypertensive rats (SHRs); assay: Antihypertensive action in spontaneously hypertensive rats (SHRs); assay type: in vivo, rat; details: SHR, oral
Description: Method: Male SHR at ages ranging from 20 to 24 weeks were anesthetized with pentobarbital.sodium (50 mg/kg, i.p.) and, from the femoral artery of each animal, a polyethylene tube was inserted. The polyethylene tube was connected to a pressure transducer and blood pressure after oral administration of drugs was recorded continuously under non-anesthesia. The animals, after the operation, were allowed to freely access to drinking water and eating, until administration of the drugs. The compounds were all orally administered as a suspension in gum arabic (2 ml/kg).

hamsters = assay: Cholesterol lowering effects in hamsters; assay type: in vivo, Syrian hamsters
Description: Method: Syrian hamsters of 10 weeks old were stabilized with common feed for two weeks. The animals were grouped based on the total cholesterol in blood. The vehicle (water) or drug was orally administered in a volume of 2 ml/kg for two weeks. During the period of the administration, blood was collected from retinal vessels with passage of time and the total cholesterol and triglyceride in blood were determined. On the other hand, blood was collected from abdominal aorta on the second week after the consecutive administration of the test compounds to determine the total cholesterol, triglyceride and HDL (high density lipid)-cholesterol in blood. Cholesterol C-test, triglyceride G-test and HDL-cholesterol E test (all manufactured by Wako Pure Chemical Industries, Ltd.) were used for the determination of these parameters, respectively.

Hs68 cells = assay: PDGF-induced proliferation in Hs68 cells (3H-thymidine uptake); assay type: cell-based, Human; details: Hs68, PDGF-BB 5 ng/ml, concentration 1 × 10^−6 M
Description: Method: Human skin fibroblasts (Hs68, Institute for Fermentation, Osaka) were seeded in 48-well plates precoated with collagen type I (Falcon) (25000 cells/well), and cultured for one day. Then, the cells were cultured in Dulbecco's modified Eagle's medium (high glucose) containing 0.1% bovine serum albumin for 48 hours. Fifteen (15) minutes after the addition of the drug, the cells were stimulated with 5 ng/ml of PDGF-BB (Becton Dickinson Labware) containing 3H-thymidine (final concentration 0.4 mCi/ml) (Amersham). After 24 hours, the reaction was stopped with 7.5% trichloroacetic acid at 4° C. and the plate was allowed to stand at 4° C. for 30 minutes. The cells were washed with Ca^2+- and Mg^2-free phosphate-buffered saline (PBS), after then 0.1% sodium dodecyl sulfate (SDS)/0.4N NaOH was added and the plate was allowed to stand at 37° C. for 1 hour to lyze the cells. The whole content of each well was taken in a vial and neutralized with 1N HCl, and then toluene scintillator (Wako Pure Chemical Ind.) was added to each vial. After stirring, the amount of ^3H-thymidine incorporated in the cells was determined with a liquid scintillation counter. The cellular uptake of ^3H-thymidine was used as an indicator of cell proliferation. The effect of the drug on the PDGF-BB (5 ng/ml) uptake of ^3H-thymidine was expressed as % inhibition.

5/6 nephrectomized rats = assay: Antiproteinuric effect in 5/6 nephrectomized rats; assay type: in vivo, Sprague Dawley rats
Description: Method: Male Sprague Dawley rats of five-week old (Japan Clea) were anesthetized with pentobarbital.sodium (50 mg/kg, i.p.), and the right kidney was excised by dorsal incision, and its two-thirds were cut. Two weeks later, the whole of left kidney was removed. In the Sham group, only the second operation was performed. In two weeks after the second operation, urine was collected for 24 hours under drinking water ad libitum. Urinary albumin and total protein were quantitatively determined by the use of A/G B-test (Wako). On the following day of collecting urine, the blood pressure was measured by the tail cuff method. Test animals showing more proteinuria than that of Sham group were selected. Based on the amount of the proteinuria and the blood pressure level, the animals were grouped so that, the average and distribution of urinary protein and blood pressure same in each group. The drug was suspended in gumarabic/water or dissolved in water, and orally administered once a day for 6-8 weeks in a volume of 2 ml/kg. The administration was consecutively performed, and, at 2, 4, 6 and 8th weeks of treatment, urine was collected and blood pressure was measured. The vehicle group was orally administered with only water at a dose of 2 ml/kg.

PDGF-induced contraction = assay: Inhibitory effects on the contraction due to PDGF (isolated thoracic aorta strips); set-up: species or system stroke prone spontaneously hypertensive rats; details: 1.7 nM PDGF-AB, drug added 30 minutes before
Description: Method: The thoracic aorta of stroke prone spontaneously hypertensive rats at ages ranging from 16 to 36 weeks were isolated, and strip (2 mm in width, 2 cm in length) were prepared from the aorta. Each strip was mounted in 10 ml of an organ bath, which was loaded at 2 g and allowed to stabilized for 2 to 3 hours. As the nutrient, a Krebs-Henseleit solution, bubbled with a mixture gas (95% O2, 5% CO2), was used. At the time when the contraction response against 60 mM KCl becomes constant, each strip was applied by 1.7 nM of PDGF-AB (Cosmobio Inc.) for contraction. Observation was continued until the contraction become maximum and stable (30 to 40 minutes after application of PDGF-AB). Then, the strips were washed, and, in about one hour later (after the tone of the vaso-contraction was recovered to the original level), 10 μl of the drug (DMSO solution) was added. Thirty minutes after drug, 1.7 nM of PDGF-AB was added again and subjected to observation until the contraction became maximum. The PDGF-AB-induced contraction was isometrically recorded on a polygraph (Nihon Denki San-ei). From the contractile response of the strips to PDGF-AB in the absence or presence of drugs, % inhibition of each drug was calculated. IC50 value for the inhibitory effects was calculated in accordance with the Filler's theorem using the least squares method.

[2] = 3 mg/kg oral once a day, 0 weeks
[3] = 3 mg/kg oral once a day, 2 weeks
[4] = 3 mg/kg oral once a day, 4 weeks
[5] = 3 mg/kg oral once a day, 6 weeks
[6] = 3 mg/kg oral once a day, 8 weeks
[7] = 10 mg/kg oral once a day, 0 weeks
[8] = 10 mg/kg oral once a day, 2 weeks
[9] = 10 mg/kg oral once a day, 4 weeks
[10] = 10 mg/kg oral once a day, 6 weeks
[11] = 10 mg/kg oral once a day, 8 weeks

For “1,2-Dihydro-3-methyl-1-[3,3-dimethyl-5-(trifluoromethanesulfonamido)pentan-1-yl]-1,4,7b-triazacyclopent[cd]inden-2-one.hydrochloride [Example 40]”, the blood-pressure change ([1]; 30 mg/kg, after 7 hrs.) was −20 [after 7 hrs.] mmHg.
In the case of “1,2-Dihydro-3-methyl-1-[4-(methoxycarbonylamino)butan-1-yl]-1,4,7b-triazacyclopento[cd]inden-2-one.hydrochloride [Example 37]”, the blood-pressure change ([1]; 30 mg/kg, after 5 hrs.) is reported as −14 [after 5 hrs.] mmHg.
In the case of “1,2-Dihydro-3-methyl-1-[4-[(2,2,2-trifluoro)ethanesulfonamido]butan-1-yl]-1,4,7b-triazacyclopent[cd]inden-2-one.hydrochloride [Example 38]”, the blood-pressure change ([1]; 30 mg/kg, after 4 hrs.) is reported as −19 [after 4 hrs.] mmHg.
With “1,2-Dihydro-3-methyl-1-[6-(trifluoromethanesulfon-amido)hexan-1-yl)-1,4,7b-triazacyclopent[cd]inden-2-one.hydrochloride [Example 28]” the blood-pressure change ([1]; 30 mg/kg, after 3 hrs.) was −13 [after 3 hrs.] mmHg, the “TC (total cholesterol in blood), % of Vehicle” value (hamsters; 30 mg/kg oral for two weeks) was 65.1 % of Vehicle and the “TC-HDL ([total cholesterol value]-[HDL-cholesterol value]), % of Vehicle” value (shortened to “TC-HDL … % of Vehicle”) (hamsters; 30 mg/kg oral for two weeks) was 61.6 % of Vehicle.
For `O=C1c2cnc3cccc(n23)CN1CCC1CCN(S(=O)(=O)C(F)(F)F)CC1` [86 (ii), 4,5-dihydro-4-[2-(1-trifluoromethane-sulfonylpiperidin-4-yl)ethan-1-yl]-3H-1,4,8b-triazaace-naphthylen-3-one], the “% Inhibition of cell proliferation (3H-thymidine uptake)” value (Hs68 cells) was 96.6%.
With `Cl.Cl.O=S(=O)(NCCCCN1Cc2cccc3ncc(n23)C1)C(F)(F)F` [Example 1, 4,5-Dihydro-4-[4-(trifluoromethanesulfonamido)butan-1-yl]-3H-1,4,8b-triazaacenaphthylene.dihydrochloride] the blood-pressure change ([1]; 10 mg/kg, after 5 hrs.) was −21 [after 5 hrs.] mmHg, the Urinary albumin excretion (5/6 nephrectomized rats; [2]) was 11.2 mg/day and the Urinary protein excretion (5/6 nephrectomized rats; [2]) was 114.5 mg/day. It also gave a Urinary albumin excretion (5/6 nephrectomized rats; [3]) of 16.9 mg/day, a Urinary protein excretion (5/6 nephrectomized rats; [3]) of 117.0 mg/day and a Urinary albumin excretion (5/6 nephrectomized rats; [4]) of 18.4 mg/day. For the same compound, the Urinary protein excretion (5/6 nephrectomized rats; [4]) was 98.2 mg/day, the Urinary albumin excretion (5/6 nephrectomized rats; [5]) was 13.0 mg/day and the Urinary protein excretion (5/6 nephrectomized rats; [5]) was 156.3 mg/day. The Urinary albumin excretion (5/6 nephrectomized rats; [6]) was 25.1 mg/day, the Urinary protein excretion (5/6 nephrectomized rats; [6]) was 102.8 mg/day and the “TC (total cholesterol in blood), % of Vehicle” value (hamsters; 30 mg/kg oral for two weeks) was 64.1 % of Vehicle. For the same compound, the “TC-HDL … % of Vehicle” value (hamsters; 30 mg/kg oral for two weeks) was 68.9 % of Vehicle and the IC50 (PDGF-induced contraction) was 2130 nM.
In the case of `Cc1nc2cccc3n2c1CN(CCCCNS(=O)(=O)C(F)(F)F)C3.Cl.Cl` [Example 3, 4,5-Dihydro-2-methyl-4-[4-(trifluoromethanesulfonamido)butan-1-yl]-3H-1,4,8b-triazaacenaphthylene.dihydrochloride], the “TC (total cholesterol in blood), % of Vehicle” value (hamsters; 10 mg/kg oral for two weeks) is reported as 82.2 % of Vehicle, the “TC-HDL … % of Vehicle” value (hamsters; 10 mg/kg oral for two weeks) is reported as 79.0 % of Vehicle and the IC50 (PDGF-induced contraction) is reported as 290 nM.
With `Cl.O=C1c2cnc3cccc(n23)CN1CCCCNS(=O)(=O)C(F)(F)F` [Example 6, 4,5-Dihydro-4-[4-(trifluoromethanesulfonamido)butan-1-yl]-3H-1,4,8b-triazaacenaphthylen-3-one.hydrochloride] the blood-pressure change ([1]; 10 mg/kg, after 4 hrs.) was −19 [after 4 hrs.] mmHg, the Urinary albumin excretion (5/6 nephrectomized rats; [7]) was 6.8 mg/day and the Urinary protein excretion (5/6 nephrectomized rats; [7]) was 114.1 mg/day. The Urinary albumin excretion (5/6 nephrectomized rats; [8]) was 13.5 mg/day, the Urinary protein excretion (5/6 nephrectomized rats; [8]) was 103.0 mg/day and the Urinary albumin excretion (5/6 nephrectomized rats; [9]) was 17.2 mg/day. It also gave a Urinary protein excretion (5/6 nephrectomized rats; [9]) of 93.9 mg/day, a Urinary albumin excretion (5/6 nephrectomized rats; [10]) of 13.1 mg/day and a Urinary protein excretion (5/6 nephrectomized rats; [10]) of 167.2 mg/day. For the same compound, the Urinary albumin excretion (5/6 nephrectomized rats; [11]) was 24.8 mg/day, the Urinary protein excretion (5/6 nephrectomized rats; [11]) was 117.3 mg/day and the “TC (total cholesterol in blood), % of Vehicle” value (hamsters; 10 mg/kg oral for two weeks) was 89.5 % of Vehicle. For the same compound, the “TC-HDL … % of Vehicle” value (hamsters; 10 mg/kg oral for two weeks) was 84.6 % of Vehicle and the IC50 (PDGF-induced contraction) was 1270 nM.
In the case of `Cl.O=C1c2cnc3cccc(n23)CN1CCCCCNS(=O)(=O)C(F)(F)F` [Example 8, 4,5-Dihydro-4-[5-(trifluoromethanesulfonamido)pentan-1-yl]-3H-1,4,8b-triazaacenaphthylen-3-one.hydrochloride], the “TC (total cholesterol in blood), % of Vehicle” value (hamsters; 10 mg/kg oral for two weeks) is reported as 81.5 % of Vehicle, the “TC-HDL … % of Vehicle” value (hamsters; 10 mg/kg oral for two weeks) is reported as 77.1 % of Vehicle and the IC50 (PDGF-induced contraction) is reported as 310 nM.
For `Cl.O=c1c2cccc3ncc(c(=O)n1CCCCNS(=O)(=O)C(F)(F)F)n32` [Example 11, 4,5-Dihydro-4-[4-(trifluoromethanesulfonamido)butan-1-yl]-3H-1,4,8b-triazaacenaphthylene-3,5-dione.hydrochloride], the blood-pressure change ([1]; 30 mg/kg, after 7 hrs.) was −31 [after 7 hrs.] mmHg, the Urinary albumin excretion (5/6 nephrectomized rats; [7]) was 10.2 mg/day and the Urinary protein excretion (5/6 nephrectomized rats; [7]) was 115.1 mg/day. For the same compound, the Urinary albumin excretion (5/6 nephrectomized rats; [8]) was 19.8 mg/day, the Urinary protein excretion (5/6 nephrectomized rats; [8]) was 69.1 mg/day and the Urinary albumin excretion (5/6 nephrectomized rats; [9]) was 30.3 mg/day. For the same compound, the Urinary protein excretion (5/6 nephrectomized rats; [9]) was 62.5 mg/day, the Urinary albumin excretion (5/6 nephrectomized rats; [10]) was 26.0 mg/day and the Urinary protein excretion (5/6 nephrectomized rats; [10]) was 170.3 mg/day. It also gave a Urinary albumin excretion (5/6 nephrectomized rats; [11]) of 38.3 mg/day and a Urinary protein excretion (5/6 nephrectomized rats; [11]) of 125.4 mg/day.
Compound `CC(C)(C)OC(=O)NCCCCn1c(=O)c2cccc3ncc(c1=O)n32` [Example 17, 4,5-Dihydro-4-[4-(tert-butoxycarbonylamino)butan-1-yl]-3H-1,4,8b-triazaacenaphthylene-3,5-dione] has a melting point of 118 to 119 °C.
For `Cc1ncc2ccc3n(CCCCCNS(=O)(=O)C(F)(F)F)c(=O)c1n23.Cl` [Example 26], the blood-pressure change ([1]; 10 mg/kg, after 7 hrs.) was −22 [after 7 hrs.] mmHg, the “TC (total cholesterol in blood), % of Vehicle” value (hamsters; 30 mg/kg oral for two weeks) was 74.5 % of Vehicle and the “TC-HDL … % of Vehicle” value (hamsters; 30 mg/kg oral for two weeks) was 72.1 % of Vehicle. The IC50 (PDGF-induced contraction) was 370 nM.
In the case of `Cc1ncc2ccc3n(CCCCCNS(=O)(=O)CC(F)(F)F)c(=O)c1n23.Cl` [Example 27, 1,2-Dihydro-3-methyl-1-[5-[(2,2,2-trifluoro)-ethanesulfonamido]pentan-1-yl]-1,4,7b-triazacyclopent[cd]inden-2-one.hydrochloride], the blood-pressure change ([1]; 30 mg/kg, after 7 hrs.) is reported as −17 [after 7 hrs.] mmHg.
For `CCS(=O)(=O)NCCCCn1c(=O)c2c(C)ncc3ccc1n32.Cl` [Example 35, 1,2-Dihydro-3-methyl-1-[4-(ethanesulfonamido)butan-1-yl]-1,4,7b-triazacyclopent[cd]inden-2-one.hydrochloride], the blood-pressure change ([1]; 30 mg/kg, after 2 hrs.) was −14 [after 2 hrs.] mmHg.
